# Test results: US20250270180A1, “MEK INHIBITORS AND THERAPEUTIC USES THEREOF” (Immuneering Corporation, priority 2020, published 2025)
# Experiments:
# [1] = Microsome stability, human; format: in vitro ADME; details: microsomes, 2 μM
# [2] = Microsome stability, beagle dog; format: in vitro ADME; details: microsomes, 2 μM
# [3] = Plasma stability, human; format: in vitro ADME; details: 2 μM
# [4] = Plasma stability, beagle dog; format: in vitro ADME; details: 2 μM
# [5] = Plasma stability, CD-1 mouse; format: in vitro ADME; details: 2 μM
# [6] = biological target: T1, CYP450 1A2 (Homo sapiens, UniProt P05177); assay: CYP450 panel, 1A2; format: in vitro ADME; details: 10 μM; substrate phenacetin
# T1 sequence (P05177 1-516): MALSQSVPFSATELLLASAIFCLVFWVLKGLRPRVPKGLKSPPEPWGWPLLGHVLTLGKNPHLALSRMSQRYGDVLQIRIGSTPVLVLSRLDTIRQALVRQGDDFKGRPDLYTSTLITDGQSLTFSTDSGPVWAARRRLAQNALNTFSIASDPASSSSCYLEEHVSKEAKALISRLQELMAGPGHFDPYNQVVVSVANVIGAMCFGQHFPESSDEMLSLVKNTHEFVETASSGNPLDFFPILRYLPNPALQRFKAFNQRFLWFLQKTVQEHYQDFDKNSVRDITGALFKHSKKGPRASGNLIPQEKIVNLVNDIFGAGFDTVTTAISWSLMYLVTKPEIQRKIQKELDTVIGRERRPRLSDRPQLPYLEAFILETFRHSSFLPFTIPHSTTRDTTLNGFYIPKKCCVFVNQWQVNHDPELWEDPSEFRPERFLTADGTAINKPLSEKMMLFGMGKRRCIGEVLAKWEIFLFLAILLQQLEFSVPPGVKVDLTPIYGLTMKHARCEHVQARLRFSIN
# [7] = test system: A549 pERK; assay: A549-pERK, 2 h (quantitative Western, Jess); format: cell-based; details: Homo sapiens, A549, 2 h, phospho:total ratio normalized to DMSO control; for activity at 0.01 µM: 10 nM
# Procedure, shortened: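 Cells treated in duplicate for 2 h with compound, lysed and protein-normalised (1 mg/mL pERK, 1.5 mg/mL pMEK). Quantitative capillary Western; phospho/total protein ratio normalised to DMSO.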
# [8] = biological target: hERG Channel (Homo sapiens, UniProt Q12809); assay: cell-based
# [9] = biological target: T2, CYP450 2B6 (Homo sapiens, UniProt P20813); assay: CYP450 panel, 2B6; details: 10 μM; substrate bupropion
# T2 sequence (P20813 1-491): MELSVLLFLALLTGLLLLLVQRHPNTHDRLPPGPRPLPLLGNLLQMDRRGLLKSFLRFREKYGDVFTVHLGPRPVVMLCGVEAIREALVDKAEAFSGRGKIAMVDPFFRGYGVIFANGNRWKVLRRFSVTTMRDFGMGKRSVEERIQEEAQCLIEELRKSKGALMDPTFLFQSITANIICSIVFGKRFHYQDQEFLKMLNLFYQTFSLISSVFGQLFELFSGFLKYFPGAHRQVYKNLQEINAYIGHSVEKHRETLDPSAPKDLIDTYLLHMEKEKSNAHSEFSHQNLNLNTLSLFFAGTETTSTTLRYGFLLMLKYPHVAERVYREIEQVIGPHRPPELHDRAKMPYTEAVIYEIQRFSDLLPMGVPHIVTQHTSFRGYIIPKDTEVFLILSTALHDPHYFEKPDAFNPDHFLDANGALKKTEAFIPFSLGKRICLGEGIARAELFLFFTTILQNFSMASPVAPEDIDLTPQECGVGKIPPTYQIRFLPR
# [10] = biological target: T3, CYP450 2C8 (Homo sapiens, UniProt P10632); assay: CYP450 panel, 2C8; details: 10 μM; substrate amodiaquine
# T3 sequence (P10632 1-490): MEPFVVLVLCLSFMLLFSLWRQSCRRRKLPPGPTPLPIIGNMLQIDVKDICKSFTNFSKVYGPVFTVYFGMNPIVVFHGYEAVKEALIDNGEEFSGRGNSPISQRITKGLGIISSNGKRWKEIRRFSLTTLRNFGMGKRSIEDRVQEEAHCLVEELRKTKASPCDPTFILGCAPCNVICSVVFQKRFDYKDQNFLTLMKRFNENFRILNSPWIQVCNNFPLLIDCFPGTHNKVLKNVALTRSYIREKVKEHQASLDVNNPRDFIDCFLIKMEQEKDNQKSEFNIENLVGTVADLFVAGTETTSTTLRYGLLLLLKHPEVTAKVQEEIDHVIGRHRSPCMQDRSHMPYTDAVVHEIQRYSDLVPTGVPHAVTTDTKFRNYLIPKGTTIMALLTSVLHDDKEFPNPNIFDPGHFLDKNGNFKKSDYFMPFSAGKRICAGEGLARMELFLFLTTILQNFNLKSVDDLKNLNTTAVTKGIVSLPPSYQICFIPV
# [11] = biological target: CYP450 2C9 (Homo sapiens, UniProt P11712); assay: CYP450 panel, 2C9; details: 10 μM; substrate Diclofenac
# [12] = biological target: CYP450 2D6 (Homo sapiens, UniProt P10635); assay: CYP450 panel, 2D6; details: 10 μM; substrate dextromethophan
# [13] = biological target: CYP450 3A4 (Homo sapiens, UniProt P08684); assay: CYP450 panel, 3A4; details: 10 μM; for 3A4*: substrate midazolam; for 3A4^: substrate testosterone
# [14] = biological target: CYP450 2C19 (Homo sapiens, UniProt P33261); assay: CYP450 panel, 2C19; details: 10 μM; substrate mephenytoin
# [15] = Microsome stability, CD-1 mouse; details: microsomes, 2 μM
# [16] = Absorption & efflux: Caco-2 permeability; details: human
# [17] = test system: A549 CRAF BP (MEK phosphorylation); assay: A549-CRAF BP 100 nM, 2 h (pMEK); format: cell-based; details: Homo sapiens, A549, 2 h, phospho:total ratio normalized to DMSO control
# Method: A549 or […] cells were treated in duplicate for two hours with compounds at varying concentrations. After two hours, the cells were lysed, snap frozen, and stored at −80° C. After storage, the lysate was quantified with the Bradford assay. Before the lysates were prepared to run on the Jess, the lysates were diluted to 1 mg/mL for pERK analysis and 1.5 mg/mL pMEK analysis using quantitative Western blotting. ERK and MEK phosphorylation levels were estimated by taking the ratio of phospho-protein to total protein and normalizing to the DMSO control. The results of this study are described in Tables 14-16.
# [18] = Caco-2, A-B Permeability Ranking, 10 μM, 2 hrs
# [19] = Caco-2, Mean Papp A-B (10^−6 cm/s), 10 μM, 2 hrs
# CYP450 2D6, sequence (P10635 whole entry): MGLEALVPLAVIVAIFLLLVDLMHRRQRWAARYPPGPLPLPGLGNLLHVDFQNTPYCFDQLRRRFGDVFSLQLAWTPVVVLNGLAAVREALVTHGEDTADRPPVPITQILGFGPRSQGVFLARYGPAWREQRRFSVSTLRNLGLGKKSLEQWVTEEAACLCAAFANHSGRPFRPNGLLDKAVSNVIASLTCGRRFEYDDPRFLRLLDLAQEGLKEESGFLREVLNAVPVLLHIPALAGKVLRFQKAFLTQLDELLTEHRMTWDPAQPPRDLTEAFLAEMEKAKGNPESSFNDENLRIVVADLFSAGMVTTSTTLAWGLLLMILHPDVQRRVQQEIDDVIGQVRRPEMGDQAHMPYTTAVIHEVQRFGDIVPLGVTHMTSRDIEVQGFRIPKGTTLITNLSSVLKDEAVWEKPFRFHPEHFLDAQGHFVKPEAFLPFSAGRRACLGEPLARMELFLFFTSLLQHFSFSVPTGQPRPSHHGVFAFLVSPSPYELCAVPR
# CYP450 3A4, sequence (P08684 whole entry): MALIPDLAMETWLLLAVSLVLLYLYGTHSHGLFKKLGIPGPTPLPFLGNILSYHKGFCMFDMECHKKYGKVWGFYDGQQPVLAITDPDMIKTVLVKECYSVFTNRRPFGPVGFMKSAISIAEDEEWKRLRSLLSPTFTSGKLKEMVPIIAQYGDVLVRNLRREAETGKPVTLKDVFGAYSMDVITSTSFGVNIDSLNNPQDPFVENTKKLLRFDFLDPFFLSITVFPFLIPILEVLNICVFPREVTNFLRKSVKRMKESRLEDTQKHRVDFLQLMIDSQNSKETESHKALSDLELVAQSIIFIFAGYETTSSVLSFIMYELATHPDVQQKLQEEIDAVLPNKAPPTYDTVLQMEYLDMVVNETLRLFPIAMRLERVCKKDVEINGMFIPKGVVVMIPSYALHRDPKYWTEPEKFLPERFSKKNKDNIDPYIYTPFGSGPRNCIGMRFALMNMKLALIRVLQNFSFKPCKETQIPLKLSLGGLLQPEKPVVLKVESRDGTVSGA
# CYP450 2C19, sequence (P33261 whole entry): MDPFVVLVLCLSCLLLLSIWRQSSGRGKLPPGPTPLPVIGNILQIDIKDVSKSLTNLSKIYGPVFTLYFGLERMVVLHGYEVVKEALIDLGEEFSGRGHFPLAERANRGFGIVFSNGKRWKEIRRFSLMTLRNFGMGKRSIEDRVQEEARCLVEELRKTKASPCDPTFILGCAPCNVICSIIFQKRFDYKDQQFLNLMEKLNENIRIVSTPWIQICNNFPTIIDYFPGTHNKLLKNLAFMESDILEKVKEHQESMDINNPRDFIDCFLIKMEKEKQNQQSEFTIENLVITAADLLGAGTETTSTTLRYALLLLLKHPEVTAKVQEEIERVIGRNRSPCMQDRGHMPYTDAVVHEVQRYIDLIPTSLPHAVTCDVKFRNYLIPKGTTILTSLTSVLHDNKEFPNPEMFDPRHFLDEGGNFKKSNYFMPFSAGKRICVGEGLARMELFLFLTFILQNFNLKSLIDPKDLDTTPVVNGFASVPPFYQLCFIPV
# hERG Channel, sequence (Q12809 whole entry): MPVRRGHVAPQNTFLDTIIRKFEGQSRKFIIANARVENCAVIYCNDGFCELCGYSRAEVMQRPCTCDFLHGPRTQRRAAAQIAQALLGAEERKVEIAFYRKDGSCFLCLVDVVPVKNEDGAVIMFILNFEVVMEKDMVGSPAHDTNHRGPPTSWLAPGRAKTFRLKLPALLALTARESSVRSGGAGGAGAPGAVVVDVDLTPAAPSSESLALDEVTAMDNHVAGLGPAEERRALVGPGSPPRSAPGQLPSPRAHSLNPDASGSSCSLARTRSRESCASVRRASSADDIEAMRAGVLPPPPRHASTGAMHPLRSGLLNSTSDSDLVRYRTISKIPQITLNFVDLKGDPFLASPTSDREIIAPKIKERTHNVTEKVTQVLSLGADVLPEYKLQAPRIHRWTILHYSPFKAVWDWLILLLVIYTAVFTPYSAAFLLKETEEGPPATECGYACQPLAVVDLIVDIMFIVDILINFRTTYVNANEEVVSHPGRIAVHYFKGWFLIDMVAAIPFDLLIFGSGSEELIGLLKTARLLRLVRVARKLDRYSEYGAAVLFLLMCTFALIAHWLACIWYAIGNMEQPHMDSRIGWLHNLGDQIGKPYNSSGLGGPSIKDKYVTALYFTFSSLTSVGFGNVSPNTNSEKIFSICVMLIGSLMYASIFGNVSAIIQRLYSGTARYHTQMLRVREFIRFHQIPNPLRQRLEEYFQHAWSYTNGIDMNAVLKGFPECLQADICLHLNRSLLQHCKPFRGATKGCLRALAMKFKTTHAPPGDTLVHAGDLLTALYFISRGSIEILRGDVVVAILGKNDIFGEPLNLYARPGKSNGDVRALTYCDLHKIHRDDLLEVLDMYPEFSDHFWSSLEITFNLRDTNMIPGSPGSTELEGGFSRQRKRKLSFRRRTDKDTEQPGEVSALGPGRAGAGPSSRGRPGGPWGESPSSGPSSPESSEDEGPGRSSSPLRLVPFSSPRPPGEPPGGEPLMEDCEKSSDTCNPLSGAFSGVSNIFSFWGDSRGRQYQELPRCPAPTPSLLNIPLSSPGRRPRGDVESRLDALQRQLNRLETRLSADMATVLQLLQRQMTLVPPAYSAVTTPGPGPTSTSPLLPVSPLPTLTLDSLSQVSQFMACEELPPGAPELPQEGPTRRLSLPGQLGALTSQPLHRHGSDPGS
# CYP450 2C9, sequence (P11712 whole entry): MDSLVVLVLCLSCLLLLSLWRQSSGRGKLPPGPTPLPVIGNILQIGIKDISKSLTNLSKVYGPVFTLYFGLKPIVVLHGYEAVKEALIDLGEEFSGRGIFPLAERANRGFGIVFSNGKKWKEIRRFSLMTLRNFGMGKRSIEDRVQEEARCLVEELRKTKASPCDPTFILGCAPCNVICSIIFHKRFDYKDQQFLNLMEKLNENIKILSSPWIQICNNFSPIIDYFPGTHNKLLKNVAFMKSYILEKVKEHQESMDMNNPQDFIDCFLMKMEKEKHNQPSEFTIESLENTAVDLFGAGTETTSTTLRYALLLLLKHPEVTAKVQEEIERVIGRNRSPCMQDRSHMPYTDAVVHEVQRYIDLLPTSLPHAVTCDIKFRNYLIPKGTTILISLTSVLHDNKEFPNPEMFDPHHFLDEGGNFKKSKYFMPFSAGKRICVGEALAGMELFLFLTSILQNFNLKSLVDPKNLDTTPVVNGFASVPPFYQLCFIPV
smiles,measurement,setting,value
CNS(=O)(=O)Nc1cccc(Cc2c(CN3CCN(C)CC3)c3ccc(OC(=O)N(C)C)cc3oc2=O)c1F [Compound 15],Human (% Reamining @1 hour),[1],75.8%
same,Beagle Dog (% Reamining @1 hour),[2],46.0%
same,Human (% Reamining @2 hour),[3],98.1%
same,Beagle Dog (% Reamining @2 hour),[4],89.1%
same,CD-1 Mouse (% Reamining @2 hour),[5],87.1%
same,1A2*,[6],7.8
same,activity at 0.01 µM,[7],73.8%
same,IC50,[8],6.5 µM
same,2B6*,[9],16.3
same,2C8*,[10],−16.9
same,2C9*,[11],3.0
same,2D6*,[12],0.5
same,3A4*,[13],21.3
same,3A4^,[13],20.5
same,2C19*,[14],4.3
same,CD-1 Mouse (% Reamining @1 hour),[15],77.6%
same,"Papp B→A at 2 h, 10 μM",[16],34.9 ×10⁻⁶ cm/s
same,"efflux ratio at 2 h, 10 μM",[16],29.3
same,"Papp A→B at 2 h, 10 μM",[16]; [18],> 1 ×10⁻⁶ cm/s
same,"Papp A→B at 2 h, 10 μM",[16]; [19],1.19 ×10⁻⁶ cm/s
Nc1ccc(S(=O)(=O)Nc2ccnn2-c2ccccc2)cc1 [Sulfaphenazole],2C9*,[11],101.2
CNS(=O)(=O)Nc1cccc(Cc2c(CNC3CC3)c3ccc(OC(=O)N(C)C)cc3oc2=O)c1F [Compound 11],Human (% Reamining @1 hour),[1],28.9%
same,Beagle Dog (% Reamining @1 hour),[2],4.9%
same,Human (% Reamining @2 hour),[3],93.7%
same,Beagle Dog (% Reamining @2 hour),[4],97.8%
same,CD-1 Mouse (% Reamining @2 hour),[5],81.4%
same,1A2*,[6],6.9
same,IC50,[8],1.1 µM
same,2B6*,[9],12.1
same,2C8*,[10],0.8
same,2C9*,[11],12.9
same,2D6*,[12],9.8
same,3A4*,[13],36.1
same,3A4^,[13],44.8
same,2C19*,[14],9.7
same,CD-1 Mouse (% Reamining @1 hour),[15],7.0%
same,"Papp B→A at 2 h, 10 μM",[16],19.7 ×10⁻⁶ cm/s
same,"efflux ratio at 2 h, 10 μM",[16],2.15
same,"Papp A→B at 2 h, 10 μM",[16]; [18],> 1 ×10⁻⁶ cm/s
same,"Papp A→B at 2 h, 10 μM",[16]; [19],9.18 ×10⁻⁶ cm/s
O=c1c(O)c(-c2ccc(O)c(O)c2)oc2cc(O)cc(O)c12 [Quercetin],2C8*,[10],93.1
COc1ccc2[nH]c([S+]([O-])Cc3ncc(C)c(OC)c3C)nc2c1 (stereo not shown) [Omeprazole],2C19*,[14],61.6
CC[C@H](C)C(=O)O[C@H]1C[C@@H](C)C=C2C=C[C@H](C)[C@H](CC[C@@H]3C[C@@H](O)CC(=O)O3)[C@H]21 [Lovastatin],Human (% Reamining @2 hour),[3],81.8%
same,Beagle Dog (% Reamining @2 hour),[4],94.1%
same,CD-1 Mouse (% Reamining @2 hour),[5],0.6%
CNC(=C[N+](=O)[O-])NCCSCc1ccc(CN(C)C)o1 [Ranitidine],"Papp A→B at 2 h, 10 μM",[16],< 1 ×10⁻⁶ cm/s
CC(C)[N+](C)(CCOC(=O)C1c2ccccc2Oc2ccccc21)C(C)C [Propantheline],Human (% Reamining @2 hour),[3],5.7%
same,Beagle Dog (% Reamining @2 hour),[4],58.4%
same,CD-1 Mouse (% Reamining @2 hour),[5],27.1%
CNS(=O)(=O)Nc1cccc(Cc2c(CNc3ccn[nH]3)c3ccc(OC(=O)N(C)C)cc3oc2=O)c1F [Compound 12],Human (% Reamining @1 hour),[1],32.9%
same,Beagle Dog (% Reamining @1 hour),[2],42.8%
same,Human (% Reamining @2 hour),[3],100.5%
same,Beagle Dog (% Reamining @2 hour),[4],102.6%
same,CD-1 Mouse (% Reamining @2 hour),[5],86.6%
same,1A2*,[6],13.0
same,IC50,[8],> 30 µM
same,2B6*,[9],14.9
same,2C8*,[10],2.4
same,2C9*,[11],8.4
same,2D6*,[12],4.5
same,3A4*,[13],29.2
same,3A4^,[13],31.9
same,2C19*,[14],16.0
same,CD-1 Mouse (% Reamining @1 hour),[15],28.2%
same,"Papp B→A at 2 h, 10 μM",[16],17.9 ×10⁻⁶ cm/s
same,"efflux ratio at 2 h, 10 μM",[16],16.9
same,"Papp A→B at 2 h, 10 μM",[16]; [18],> 1 ×10⁻⁶ cm/s
same,"Papp A→B at 2 h, 10 μM",[16]; [19],1.06 ×10⁻⁶ cm/s
CNS(=O)(=O)Nc1cccc(Cc2c(CN3CC4(CCC4)C3)c3ccc(OC(=O)N(C)C)cc3oc2=O)c1F [Compound 153],activity at 0.01 µM,[7],50.2%
same,activity at 0.1 µM,[17],54.1%
C#CCNCCc1c(Cc2cccc(NS(=O)(=O)NC)c2F)c(=O)oc2cc(OC(=O)N(C)C)ccc12 [Compound 183],activity at 0.01 µM,[7],32.4%
same,activity at 10 µM,[7]; 10 uM,0.82%
same,activity at 0.1 µM,[17],65.9%
CNS(=O)(=O)Nc1cccc(Cc2c(CN3CCNCC3)c3cc(Cl)c(OC(=O)N(C)C)cc3oc2=O)c1F [Compound 21],activity at 0.01 µM,[7],20.4%
same,activity at 0.1 µM,[17],47.9%
CNS(=O)(=O)Nc1cccc(Cc2c(CN(C)C)c3ccc(OC(=O)N4CCC4)cc3oc2=O)c1F [Compound 128],activity at 0.01 µM,[7],66.3%
same,activity at 0.1 µM,[17],37.7%
CN(C)C(=O)Oc1ccc2c(CN3CCNCC3)c(Cc3ccnc(NS(=O)(=O)C4CC4)c3F)c(=O)oc2c1 [Compound 150],activity at 0.01 µM,[7],47.4%
same,activity at 0.1 µM,[17],90.2%
